Experimental findings from ChEMBL document CHEMBL1146884, “Effect of lysine at C-terminus of the Dmt-Tic opioid pharmacophore” (J Med Chem, 2006) are described below.

Structures are written as SMILES. Where a SMILES comes first, the peptide text is derived from it. [ ]: non-standard residue; d: D form. The star is where a group is joined. Dmt = Cc1cc(O)cc(C)c1C[C@H](N)C(=O)O; Tic = O=C(O)[C@@H]1Cc2ccccc2CN1; Cbz = O=C(OCc1ccccc1)*; NHBn = c1ccc(CN*)cc1; NHPh = c1ccc(N*)cc1

Test [1] addresses T1, Delta-type opioid receptor (Mus musculus, UniProt P32300). Briefly: Antagonist activity at delta opioid receptor assessed as inhibition of deltorphin-2-induced contraction of mouse vas deferens.
Test [2] concerns the target T2, Mu-type opioid receptor (Cavia porcellus, UniProt P97266). Briefly: Agonist activity at mu opioid receptor assessed as inhibition of electrically-evoked contraction of guinea pig ileum. In kind it is functional, tissue-based.
Test [3] addresses Delta-type opioid receptor (Rattus norvegicus, UniProt P33533). As to the kind of experiment: Displacement of [3H]deltorphin2 from delta opioid receptor in Sprague-Dawley rat brain P2 synaptosomal membrane. On the technique in general: Loss of bound radioactivity is the signal in a displacement assay; it reports binding, not function.
Test [4] has as its target Mu-type opioid receptor (Rattus norvegicus, UniProt P33535). As to the kind of experiment: Displacement of [3H]DAMGO from mu opioid receptor in Sprague-Dawley rat brain P2 synaptosomal membrane.
Test [5] has as its target T1, Delta-type opioid receptor. Briefly: Agonist activity at delta opioid receptor assessed as inhibition of electrically-evoked contraction of mouse vas deferens. The test is classed as functional, tissue-based.
The target in test [6] is Opioid receptors; mu & delta (Rattus norvegicus) (UniProt P33533+P33535). Briefly: Selectivity for delta opioid receptor over mu opioid receptor in Sprague-Dawley rat brain P2 synaptosomal membrane.
Sequence of Opioid receptors; mu & delta (Rattus norvegicus) (P33533 whole entry, looked up): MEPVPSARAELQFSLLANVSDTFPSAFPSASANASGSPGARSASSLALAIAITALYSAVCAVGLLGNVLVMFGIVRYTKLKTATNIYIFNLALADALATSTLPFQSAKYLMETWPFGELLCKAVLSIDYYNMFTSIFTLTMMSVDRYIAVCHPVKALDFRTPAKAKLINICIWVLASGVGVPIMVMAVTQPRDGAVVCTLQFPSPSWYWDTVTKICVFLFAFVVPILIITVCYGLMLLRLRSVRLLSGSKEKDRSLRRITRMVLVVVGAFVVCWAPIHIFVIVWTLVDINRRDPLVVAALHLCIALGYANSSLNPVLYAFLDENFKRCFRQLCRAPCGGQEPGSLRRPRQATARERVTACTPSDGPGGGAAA
Sequence of Opioid receptors; mu & delta (Rattus norvegicus) (P33535 whole entry, looked up): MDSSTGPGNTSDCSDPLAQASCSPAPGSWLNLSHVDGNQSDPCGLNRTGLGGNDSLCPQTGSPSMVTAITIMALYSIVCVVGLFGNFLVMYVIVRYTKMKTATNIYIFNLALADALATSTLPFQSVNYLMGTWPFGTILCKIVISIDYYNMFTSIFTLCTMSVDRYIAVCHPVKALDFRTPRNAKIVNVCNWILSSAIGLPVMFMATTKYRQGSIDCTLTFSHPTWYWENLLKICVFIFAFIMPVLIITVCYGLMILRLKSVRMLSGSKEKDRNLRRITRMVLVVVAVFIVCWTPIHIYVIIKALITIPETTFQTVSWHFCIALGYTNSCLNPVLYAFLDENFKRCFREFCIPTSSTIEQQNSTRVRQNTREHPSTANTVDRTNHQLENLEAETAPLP
Test [7] deals with T2, Mu-type opioid receptor. Briefly: Antagonist activity at mu opioid receptor assessed as inhibition of endomorphin-2-induced contraction of guinea pig ileum. In kind it is functional, tissue-based. The settings on record: read-out: pA2 (converted).

Sequence of Mu-type opioid receptor (Rattus norvegicus, UniProt P33535) (P33535 whole entry): as the sequence (P33535 whole entry, looked up) above
Sequence of Delta-type opioid receptor (Rattus norvegicus, UniProt P33533) (P33533 whole entry): as the sequence (P33533 whole entry, looked up) above
T1 sequence (P32300 whole entry): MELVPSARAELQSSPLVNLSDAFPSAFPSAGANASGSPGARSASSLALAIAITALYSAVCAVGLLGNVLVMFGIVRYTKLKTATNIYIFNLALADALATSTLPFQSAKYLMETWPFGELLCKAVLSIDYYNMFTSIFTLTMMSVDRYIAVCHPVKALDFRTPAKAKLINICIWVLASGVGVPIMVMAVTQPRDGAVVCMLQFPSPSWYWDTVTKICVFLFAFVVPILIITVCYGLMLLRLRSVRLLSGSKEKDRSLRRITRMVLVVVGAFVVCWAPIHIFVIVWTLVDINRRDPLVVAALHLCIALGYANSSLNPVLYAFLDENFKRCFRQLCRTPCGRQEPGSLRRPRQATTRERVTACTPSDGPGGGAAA
T2 sequence (P97266 whole entry): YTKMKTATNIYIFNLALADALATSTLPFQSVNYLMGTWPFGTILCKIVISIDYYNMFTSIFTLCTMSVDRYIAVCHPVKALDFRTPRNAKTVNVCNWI

In the case of `Cc1cc(O)cc(C)c1C[C@H](N)C(=O)N1Cc2ccccc2C[C@H]1C(=O)N[C@@H](CCCCNC(=O)OCc1ccccc1)c1nc2ccccc2[nH]1`, the Kb in test [1] is > 10000 nM. In addition, the IC50 in test [2] is 375 nM; in test [5], 9050 nM. For the same molecule, the results for the Ki in test [3] and in test [4] were 0.64 nM and 0.37 nM, respectively.
Take `Cc1cc(O)cc(C)c1C[C@H](N)C(=O)N1Cc2ccccc2C[C@H]1C(=O)N[C@H](CCCCNC(=O)OCc1ccccc1)c1nc2ccccc2[nH]1`: the Kb in test [1] is > 10000 nM. The IC50 is 62.5 nM in test [2] and > 10000 nM in test [5]. In addition, the Ki is 0.4 nM in test [3] and 0.15 nM in test [4].
As to `CC(=O)NCCCC[C@H](NC(=O)[C@@H]1Cc2ccccc2CN1C(=O)[C@@H](N)Cc1c(C)cc(O)cc1C)c1nc2ccccc2[nH]1`, the IC50 is 53.9 nM in test [2] and > 10000 nM in test [5]. The Ki in test [3] amounted to 0.18 nM; in test [4], 0.13 nM.
As for `Cc1cc(O)cc(C)c1C[C@H](N)C(=O)N1Cc2ccccc2C[C@H]1C(=O)N[C@@H](CCCCN)c1nc2ccccc2[nH]1`, the figures for the IC50 in test [2] and in test [5] were 39.7 nM and > 10000 nM, respectively. The Ki in test [3] amounted to 0.49 nM; in test [4] it was 0.16 nM.
For `Cc1cc(O)cc(C)c1C[C@H](N)C(=O)N1Cc2ccccc2C[C@H]1C(=O)NCC(=O)O` (H-[Dmt]-[Tic]-Gly-OH), the Kb in test [1] was 1.41 nM. In addition, the Ki turned out to be 1.38 nM in test [3] and 529 nM in test [4]. Also, the Ratio Ki in test [6] came to 383.
`CC(=O)NCCCC[C@H](NC(=O)[C@@H]1Cc2ccccc2CN1C(=O)[C@@H](N)Cc1c(C)cc(O)cc1C)C(=O)NCc1ccccc1` (H-[Dmt]-[Tic]-Lys(Ac)-NHBn): the Kb was 0.0398 nM in test [1] and 6.92 nM in test [7]. The IC50 in test [2] and in test [5] was > 10000 nM in each case. The Ki in test [3] was 0.068 nM; in test [4], 5.5 nM. In addition, in test [6], the Ratio Ki worked out at 81.
Consider `CC(=O)NCCCC[C@H](NC(=O)[C@@H]1Cc2ccccc2CN1C(=O)[C@@H](N)Cc1c(C)cc(O)cc1C)C(=O)Nc1ccccc1` (H-[Dmt]-[Tic]-Lys(Ac)-NHPh), for which the Kb in test [1] is 0.001 nM. The IC50 in test [2] is 1250 nM; in test [5], > 10000 nM. Further, the results for the Ki in test [3] and in test [4] were 0.13 nM and 0.63 nM, respectively. Further, the Ratio Ki in test [6] was 5.
`Cc1cc(O)cc(C)c1C[C@H](N)C(=O)N1Cc2ccccc2C[C@H]1C(=O)N[C@@H](CCCCNC(=O)OCc1ccccc1)C(=O)NCc1ccccc1` (H-[Dmt]-[Tic]-Lys(Cbz)-NHBn): the Kb in test [1] was 617 nM; in test [7], 1510 nM. The IC50 in test [2] and in test [5] was > 10000 nM in each case. In addition, the Ki was 0.31 nM in test [3] and 4.41 nM in test [4]. Besides, in test [6], the Ratio Ki came out at 14.
`Cc1cc(O)cc(C)c1C[C@H](N)C(=O)N1Cc2ccccc2C[C@H]1C(=O)N[C@@H](CCCCNC(=O)OCc1ccccc1)C(=O)Nc1ccccc1` (H-[Dmt]-[Tic]-Lys(Cbz)-NHPh): the Kb in test [1] was 1700 nM. In addition, the IC50 is 438 nM in test [2] and > 10000 nM in test [5]. The Ki in test [3] was 0.57 nM; in test [4], 1.47 nM. In test [6], the Ratio Ki came out at 3.
For the molecule `Cc1cc(O)cc(C)c1C[C@H](N)C(=O)N1Cc2ccccc2C[C@H]1C(=O)N[C@@H](CCCCN)C(=O)NCc1ccccc1` (H-[Dmt]-[Tic]-Lys-NHBn), the Kb in test [1] was 977 nM; in test [7], 11 nM. Further, the IC50 in test [2] and in test [5] was > 10000 nM throughout. Besides, the inhibition constant Ki in test [3] was determined as 0.5 nM; in test [4], 4.05 nM. Further, the Ratio Ki in test [6] turned out to be 8.
`Cc1cc(O)cc(C)c1C[C@H](N)C(=O)N1Cc2ccccc2C[C@H]1C(=O)N[C@@H](CCCCN)C(=O)Nc1ccccc1` (H-[Dmt]-[Tic]-Lys-NHPh): the Kb in test [1] was 4170 nM. In addition, the IC50 in test [2] is 1250 nM; in test [5], > 10000 nM. For the same molecule, the values for the Ki in test [3] and in test [4] were 0.42 nM and 0.93 nM, respectively. In addition, the Ratio Ki in test [6] turned out to be 2.

For orientation: IC50 means the concentration that inhibits the measured activity by half. As a reminder, the Ki is a measure of affinity in units of concentration, obtained from inhibition or displacement. A lower Ki goes with higher affinity.
